Test results from patent publication US9399649B2, “Compounds for treating spinal muscular atrophy” (PTC Therapeutics Inc., priority 2012, dated 2016).

Columns and labels:
[1] = tested on: Smn protein; assay: Smn protein assay in cultured cells (SMN HTRF); format: cell-based, human; conditions: SMA patient fibroblast cells (GM03813), 48 hours; for maximum fold (Fold) increase of Smn protein: 7-point concentration data, relative to vehicle control; for EC1.5x for Smn protein expression: 7-point concentration curve, concentration producing 1.5 times Smn protein vs DMSO vehicle
Method in brief: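 Smn protein measured by HTRF (anti-SMN d2/kryptate) in lysates of SMA patient fibroblasts after 48 h compound treatment, 7-point 3.16-fold dilutions, triplicates. The 665/620 nm ratio is blank-corrected to ΔF, then divided by the vehicle ΔF to give fold increase.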

[2] = tested on: full length SMN2 minigene mRNA containing SMN2 exon 7; assay: SMN2 minigene mRNA splicing RT-qPCR assay in cultured cells; format: cell-based, human; conditions: Homo sapiens, HEK293-H; HEK293H cells stably transfected with SMN2-A minigene, 24 hours, 7-point concentration curve; concentration giving 1.5-fold full length SMN2 mRNA vs vehicle; read-out: EC1.5x for production of full length SMN2 mRNA
Method in brief: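 Read-out is minigene FL mRNA (exon 7 included) relative to vehicle, from efficiency-corrected ΔΔCt with GAPDH normalisation. Primers and probe span exon 7, exon 8 and luciferase, so endogenous SMN is not detected. Stable SMN2-A minigene HEK293H cells, 24 h compound exposure at 37 °C, 7-point curve in duplicate.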

| SMILES | maximum fold (Fold) increase of Smn protein [1] | melting point | EC (1.5-fold) [2] | EC1.5x for Smn protein expression [1] |
| --- | --- | --- | --- | --- |
| CCN1CCN(c2ccc3cc(-c4cn5cc(Cl)nc(C)c5n4)oc(=O)c3c2)CC1 [Cpd 102, 3-(6-chloro-8-methylimidazo[1,2-a]pyrazin-2-yl)-7-(4-ethylpiperazin-1-yl)-1H-isochromen-1-one] | *** (a fold increase between >1.35 and ≦1.5 is indicated by three stars (***)) | 229 to 234 °C | 0.1 to 0.3 µM | – |
| O=c1oc(-c2ccc3c(c2)OC(F)(F)O3)cc2ccc(N3CCNCC3)cc12 [Cpd 6, 3-(2,2-difluoro-1,3-benzodioxol-5-yl)-7-(piperazin-1-yl)-1H-isochromen-1-one] | * (A maximum fold increase of ≦1.2 is indicated by one star (*)) | 220 to 222 °C | 1 to 3 µM | – |
| Cc1nc(Cl)cn2cc(-c3cc4ccc(N5CCNCC5)cc4c(=O)o3)nc12 [Cpd 99, 3-(6-chloro-8-methylimidazo[1,2-a]pyrazin-2-yl)-7-(piperazin-1-yl)-1H-isochromen-1-one] | ***** (a fold increase >1.65 is indicated by five stars (*****)) | 221 to 226 °C | ≤ 0.1 µM | *** (an EC1.5× between >0.3 nM and ≦1 nM is indicated by three stars (***)) |
| Cc1cn2cc(-c3cc4ccc(N5CCN(C6CCC6)CC5)cc4c(=O)o3)nc2c(C)n1 [Cpd 87, 7-(4-cyclobutylpiperazin-1-yl)-3-(6,8-dimethylimidazo[1,2-a]pyrazin-2-yl)-1H-isochromen-1-one] | **** (a fold increase between >1.5 and ≦1.65 is indicated by four stars (****)) | 279 to 281 °C | ≤ 0.1 µM | **** (an EC1.5×≦0.3 nM is indicated by four stars (****)) |
| CN1CCN(c2ccc3cc(-c4ccc5c(c4)OCO5)oc(=O)c3c2)CC1 [Cpd 15, 3-(1,3-benzodioxol-5-yl)-7-(4-methylpiperazin-1-yl)-1H-isochromen-1-one] | * (A maximum fold increase of ≦1.2 is indicated by one star (*)) | 297 to 299 °C | 3 to 30 µM | – |
| COc1ccc(-c2cc3ccc(N4CCN[C@@H](C)C4)cc3c(=O)o2)cc1 [Cpd 31, 3-(4-methoxyphenyl)-7-[(3S)-3-methylpiperazin-1-yl]-1H-isochromen-1-one] | **** (a fold increase between >1.5 and ≦1.65 is indicated by four stars (****)) | 129 to 131 °C | ≤ 0.1 µM | ** (an EC1.5× between >1 μM, and ≦3 nM is indicated by two stars (**)) |
| O=c1oc(-c2ccc3c(c2)OCCO3)cc2ccc(N3CCNCC3)cc12 [Cpd 13, 3-(2,3-dihydro-1,4-benzodioxin-6-yl)-7-(piperazin-1-yl)-1H-isochromen-1-one] | * (A maximum fold increase of ≦1.2 is indicated by one star (*)) | 253 to 255 °C | 1 to 3 µM | – |
| CN1CCCN(c2ccc3cc(-c4ccc5c(c4)OC(F)(F)O5)oc(=O)c3c2)CC1 [Cpd 7, 3-(2,2-difluoro-1,3-benzodioxol-5-yl)-7-(4-methyl-1,4-diazepan-1-yl)-1H-isochromen-1-one] | * (A maximum fold increase of ≦1.2 is indicated by one star (*)) | 175 to 177 °C | 1 to 3 µM | – |
| Cc1cn2cc(-c3cc4ccc(N5CCN(C(C)C)[C@H](C)C5)cc4c(=O)o3)nc2c(C)n1 [Cpd 144, 3-(6,8-dimethylimidazo[1,2-a]pyrazin-2-yl)-7-[(3R)-3-methyl-4-(propan-2-yl)piperazin-1-yl]-1H-isochromen-1-one] | ***** (a fold increase >1.65 is indicated by five stars (*****)) | 262 to 267 °C | ≤ 0.1 µM | **** (an EC1.5×≦0.3 nM is indicated by four stars (****)) |
| COc1ccc(-c2cc3ccc(N4C[C@@H](C)N[C@@H](C)C4)cc3c(=O)o2)cc1OC [Cpd 17, 3-(3,4-dimethoxyphenyl)-7-[(3R,5S)-3,5-dimethylpiperazin-1-yl]-1H-isochromen-1-one] | *** (a fold increase between >1.35 and ≦1.5 is indicated by three stars (***)) | 309 to 311 °C | 0.3 to 1 µM | – |
| Cc1cn2cc(-c3cc4ccc(N5CCN(C6COC6)CC5)cc4c(=O)o3)nc2c(C)n1 [Cpd 97, 3-(6,8-dimethylimidazo[1,2-a]pyrazin-2-yl)-7-[4-(oxetan-3-yl)piperazin-1-yl]-1H-isochromen-1-one] | *** (a fold increase between >1.35 and ≦1.5 is indicated by three stars (***)) | 294 to 296 °C | 1 to 3 µM | – |
| COc1c(F)cc(-c2cc3ccc(N4CCN[C@@H](C)C4)cc3c(=O)o2)cc1F [Cpd 49, 3-(3,5-difluoro-4-methoxyphenyl)-7-[(3S)-3-methylpiperazin-1-yl]-1H-isochromen-1-one] | * (A maximum fold increase of ≦1.2 is indicated by one star (*)) | 170 to 173 °C | 3 to 30 µM | – |
| Cc1cn2cc(-c3cc4ccc(N5CCNCC5)cc4c(=O)o3)nc2cn1 [Cpd 56, 3-(6-methylimidazo[1,2-a]pyrazin-2-yl)-7-(piperazin-1-yl)-1H-isochromen-1-one] | ***** (a fold increase >1.65 is indicated by five stars (*****)) | 225 to 227 °C | ≤ 0.1 µM | **** (an EC1.5×≦0.3 nM is indicated by four stars (****)) |
| Cc1cn2cc(-c3cc4ccc(N5CCN[C@H](C)C5)cc4c(=O)o3)nc2c(C)n1 [Cpd 71, 3-(6,8-dimethylimidazo[1,2-a]pyrazin-2-yl)-7-[(3R)-3-methylpiperazin-1-yl]-1H-isochromen-1-one] | ***** (a fold increase >1.65 is indicated by five stars (*****)) | 331 to 333 °C | ≤ 0.1 µM | **** (an EC1.5×≦0.3 nM is indicated by four stars (****)) |
| Cc1cn2cc(-c3cc4ccc(C5=CCN(C6CC6)CC5)cc4c(=O)o3)nc2c(C)n1 [Cpd 93, 7-(1-cyclopropyl-1,2,3,6-tetrahydropyridin-4-yl)-3-(6,8-dimethylimidazo[1,2-a]pyrazin-2-yl)-1H-isochromen-1-one] | ***** (a fold increase >1.65 is indicated by five stars (*****)) | 230 to 232 °C | ≤ 0.1 µM | **** (an EC1.5×≦0.3 nM is indicated by four stars (****)) |
| CCCN1[C@H](C)CN(c2ccc3cc(-c4cn5cc(C)nc(C)c5n4)oc(=O)c3c2)C[C@@H]1C [Cpd 148, 3-(6,8-dimethylimidazo[1,2-a]pyrazin-2-yl)-7-[(3R,5S)-3,5-dimethyl-4-propylpiperazin-1-yl]-1H-isochromen-1-one] | **** (a fold increase between >1.5 and ≦1.65 is indicated by four stars (****)) | 259 to 263 °C | ≤ 0.1 µM | *** (an EC1.5× between >0.3 nM and ≦1 nM is indicated by three stars (***)) |
| Cc1cn2cc(-c3cc4ccc(N5CCN6CCC[C@H]6C5)cc4c(=O)o3)cc2c(C)n1 [Cpd 80, 3-(1,3-dimethylpyrrolo[1,2-a]pyrazin-7-yl)-7-[(8aS)-hexahydropyrrolo[1,2-a]pyrazin-2(1H)-yl]-1H-isochromen-1-one] | **** (a fold increase between >1.5 and ≦1.65 is indicated by four stars (****)) | 220 to 222 °C | ≤ 0.1 µM | **** (an EC1.5×≦0.3 nM is indicated by four stars (****)) |
| Cc1cn2cc(-c3cc4ccc(N5CCN(CC(C)C)CC5)cc4c(=O)o3)nc2c(C)n1 [Cpd 86, 3-(6,8-dimethylimidazo[1,2-a]pyrazin-2-yl)-7-[4-(2-methylpropyl)piperazin-1-yl]-1H-isochromen-1-one] | *** (a fold increase between >1.35 and ≦1.5 is indicated by three stars (***)) | 243 to 245 °C | ≤ 0.1 µM | – |
